# Laboratory results as given in patent US20090081197A1 (Palatin Technologies, Inc., priority 2007, published 2009).
# Assays:
# [1] = target: T1, MC4-R (Homo sapiens, UniProt P32245); experiment: Assay for neutral antagonist, Schild analysis (pA2) against NDP-α-MSH; assay type: cell-based; design: expressed in transfected cells; host or cells: HEK-293; details: Schild analysis vs NDP-α-MSH; for Kb: read-out: pA2 value as antagonist at MC4-R in a normal system (converted)
# Procedure: Assay for Neutral Antagonist. […] These studies were carried out in HEK-293 cells expressing the MC4-R receptor. Cells were incubated with the compounds in the presence of the agonist NDP-α-MSH and the extent of antagonism was measured by the decrease in the level of intracellular cAMP. Screening the compounds for antagonists was done at a single concentration of NDP-α-MSH (1.0 nM) over a compound concentration range of 0.5-5000 nM.
# Experimental details were similar to the analysis for agonistic activity described above. Briefly, cells were pre-incubated for 30 minutes with the test compounds at concentrations between 0.5 nM and 5000 nM. The cells were then stimulated with NDP-α-MSH at a concentration of 1 nM for 1 hour. For Schild analysis, the interactions were studied using at least 3 concentrations of the compounds, separated by a log unit, over a full range of the agonist (0.005-5000 nM). cAMP levels was measured in the cell lysates after appropriate dilution. Nonlinear regression analysis with Prism Graph-Pad software was used for Schild analysis and to obtain EC50 values. pA2 values were derived from the Schild plot of the data.
# [2] = target: T1, MC4-R; experiment: cAMP functional activity assay in HEK-293 cells, normal system; assay type: cell-based; design: expressed in transfected cells; host or cells: HEK-293; details: for functional status at MC4-R in cAMP assay: normal system, 1 μM concentration where stated; for intrinsic activity at MC4-R in a normal system: normal receptor density system, NDP-α-MSH = 1.0
# [3] = target: T1, MC4-R; experiment: cAMP agonist stimulation, low receptor density system (0.1 ng/mL doxycycline); details: for Efficacy/Intrinsic Activity: 0.1 ng/mL doxycycline, low receptor density hMC4-R system, NDP-α-MSH maximal cAMP = 1.0
# [4] = target: T2, MC3-R (Homo sapiens, UniProt P41968); experiment: Competitive inhibition assay using [I^125]-NDP-α-MSH, hMC3-R membranes; assay type: binding; design: expressed in transfected cells; details: 1 μM test compound; read-out: Inhibition at 1 μM (NDP-α-MSH) In Normal System, MC3-R
# In short: (§1)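 Tracer was 0.4 nM for MC3-R and MC5-R, 0.2 nM for MC4-R and 0.1 nM for MC1-R. Bound radioactivity was gamma-counted after filtration; values are triplicate means, with results below 0% reported as 0%.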
# [5] = ICV food intake and body weight change; assay type: in vivo; details: rat, 1 nmol, 24 hours
# In short: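 Rats fitted with intracerebroventricular cannulas and fed ad libitum got a single ICV dose of vehicle or compound (1-3 nmol). Food intake and body-weight change over the 24 h after dosing were compared with a 1-week vehicle baseline. Values at 48 h and 72 h were also recorded to follow return to baseline.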
# [6] = target: T3, MC5-R (Homo sapiens, UniProt P33032); experiment: Competitive inhibition assay using [I^125]-NDP-α-MSH, hMC5-R membranes; assay type: binding; design: expressed in transfected cells; details: 1 μM test compound; read-out: Inhibition at 1 μM (NDP-α-MSH) In Normal System, MC5-R
# In short: as §1
# [7] = target: T1, MC4-R; experiment: Competitive inhibition assay using [I^125]-NDP-α-MSH, hMC4-R membranes; assay type: binding; design: host or cells: TREx-293 (HEK-293 stably expressing Tet repressor); details: 1 μM test compound; read-out: Inhibition at 1 μM (NDP-α-MSH) In Normal System, MC4-R
# In short: as §1
# [8] = Penile erection induction in male rats; assay type: in vivo; details: rat
# In short: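 Male Sprague-Dawley rats (200-250 g), groups of 4-8, dosed IV or ICV at various doses and observed individually for penile erections. Only statistically relevant increases over vehicle-control mean PEs count as induction; IV responses below 1.0 PEs/rat treated as equivocal, some retested ICV.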
# [9] = target: T4, MC1-R (Mus musculus, UniProt Q01727); experiment: Competitive inhibition assay using [I^125]-NDP-α-MSH, B-16 mouse melanoma cell membranes; assay type: binding; details: for inhibition at 1 µM: 1 μM test compound, read-out: Inhibition at 1 μM (NDP-α-MSH) In Normal System, MC1-R; for Ki: read-out: Ki (nM) (NDP-α-MSH) In Normal System, MC1-R
# T4 construct: B-16 mouse melanoma cells (containing MC1-R); endogenous in cells
# In short: as §1
# [10] = target: T1, MC4-R; experiment: cAMP agonist stimulation, high receptor density system (10 ng/mL doxycycline); details: for Efficacy/Intrinsic Activity: 10 ng/mL doxycycline, high receptor density hMC4-R system, NDP-α-MSH maximal cAMP = 1.0
# [11] = target: T2, MC3-R; experiment: cAMP functional activity assay in HEK-293 cells; assay type: cell-based; design: expressed in transfected cells; host or cells: HEK-293; details: 1 μM concentration where stated
# Procedure: (§2) General method for EC50 determination in functional activity assay. […] Data analysis and EC50 values were determined using nonlinear regression analysis with Prism Graph-Pad software.
# (§3) Functional status. The agonist/antagonist status with respect to MC1-R, MC-3R, MC4-R and MC5-R of certain compounds of the invention was determined. Antagonistic activity was determined by measuring the inhibition of α-MSH-induced or NDP-α-MSH-induced cAMP levels following exposure to graded doses of compounds as in the preceding descriptions.
# [12] = target: T3, MC5-R; experiment: cAMP functional activity assay in HEK-293 cells; assay type: cell-based; design: expressed in transfected cells; host or cells: HEK-293; details: 1 μM concentration where stated
# Procedure: as §2, §3
# [13] = target: T4, MC1-R; experiment: cAMP functional activity assay in B-16 mouse melanoma cells; assay type: cell-based; details: 1 μM concentration where stated
# Procedure: as §2, §3
# [14] = IV and IP food intake and body weight change, rats; assay type: in vivo; details: rat, IV, 10 mg/kg, 24 hours
# Procedure: IV and IP food intake and body weight change. Change in food intake and body weight was evaluated for selected compounds. Male Sprague-Dawley rats or male C57BL/6 mice were utilized. Animals were individually housed in conventional plexiglass hanging cages and maintained on a controlled 12 hour on/off light cycle. Water and powdered (LabDiet, 5P00 Prolab RMH 3000) or pelleted (Harlan Teklad 2018 18% Protein Rodent Diet) food was provided ad libitum. For 1 week before treatment, 24-hour food intake and body weight change was recorded to assess a baseline for the group during vehicle treatment. The rats were dosed IV with vehicle or selected compounds (0.5-3 mg/kg, and in some cases up to 10 mg/Kg) or dosed intraperitoneally (IP) with vehicle or selected compounds (0.5-10 mg/kg, and in some cases up to 50 mg/kg). Mice were dosed IP. The changes in body weight and food intake for the 24 hour period after dosing were determined. The changes in body weight and food intake for the 48 hour and 72 hour periods after dosing were also measured to determined reversal of changes in body weight and food intake effects back to baseline levels.
# [15] = IP (and IN) food intake, mice; assay type: in vivo; details: mouse, IP, 4 hours
# In short: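 Male Sprague-Dawley rats dosed IV (0.5-3, up to 10 mg/kg) or IP (0.5-10, up to 50 mg/kg); male C57BL/6 mice dosed IP. Change in food intake and body weight over 24 h post-dose versus 1-week vehicle baseline, with 48 and 72 h reversal checks.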
# T2 sequence (P41968 whole entry): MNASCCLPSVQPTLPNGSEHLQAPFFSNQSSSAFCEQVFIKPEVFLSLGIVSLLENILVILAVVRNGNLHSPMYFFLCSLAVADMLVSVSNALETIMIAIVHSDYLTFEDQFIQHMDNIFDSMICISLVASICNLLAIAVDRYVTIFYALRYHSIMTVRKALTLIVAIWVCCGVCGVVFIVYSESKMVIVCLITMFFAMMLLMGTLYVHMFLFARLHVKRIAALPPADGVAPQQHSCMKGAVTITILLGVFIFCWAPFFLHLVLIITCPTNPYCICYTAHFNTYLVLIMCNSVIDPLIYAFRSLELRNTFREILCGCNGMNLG
# T4 sequence (Q01727 whole entry): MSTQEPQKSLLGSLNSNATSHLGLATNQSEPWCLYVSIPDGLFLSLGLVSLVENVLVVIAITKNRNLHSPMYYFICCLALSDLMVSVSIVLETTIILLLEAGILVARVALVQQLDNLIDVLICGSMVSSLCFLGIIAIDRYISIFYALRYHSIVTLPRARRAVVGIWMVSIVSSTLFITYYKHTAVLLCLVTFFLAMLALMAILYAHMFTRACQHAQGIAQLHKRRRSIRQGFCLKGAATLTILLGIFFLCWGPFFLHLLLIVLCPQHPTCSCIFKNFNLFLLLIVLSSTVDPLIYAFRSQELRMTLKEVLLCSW
# T1 sequence (P32245 whole entry): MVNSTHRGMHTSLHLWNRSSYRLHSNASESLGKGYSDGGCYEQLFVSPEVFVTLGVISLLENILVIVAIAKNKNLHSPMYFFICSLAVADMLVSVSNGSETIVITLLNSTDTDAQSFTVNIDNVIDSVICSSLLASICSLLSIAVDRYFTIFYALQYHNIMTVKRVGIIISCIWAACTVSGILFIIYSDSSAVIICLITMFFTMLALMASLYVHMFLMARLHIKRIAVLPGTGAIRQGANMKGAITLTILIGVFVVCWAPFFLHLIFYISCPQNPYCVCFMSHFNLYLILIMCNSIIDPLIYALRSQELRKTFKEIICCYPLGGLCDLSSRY
# T3 sequence (P33032 whole entry): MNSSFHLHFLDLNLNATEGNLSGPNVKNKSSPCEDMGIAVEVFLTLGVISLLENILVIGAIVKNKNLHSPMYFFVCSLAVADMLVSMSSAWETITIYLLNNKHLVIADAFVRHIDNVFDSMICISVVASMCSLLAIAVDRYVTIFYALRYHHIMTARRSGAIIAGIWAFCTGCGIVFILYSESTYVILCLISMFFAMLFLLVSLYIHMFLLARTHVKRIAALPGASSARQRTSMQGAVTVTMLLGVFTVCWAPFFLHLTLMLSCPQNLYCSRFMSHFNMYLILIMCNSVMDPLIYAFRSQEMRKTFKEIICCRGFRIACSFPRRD
Molecule,functional status at MC4-R in cAMP assay [2],Efficacy/Intrinsic Activity [3],inhibition at 1 µM [4] [%],decrease in food intake [5] [%],inhibition at 1 µM [6] [%],inhibition at 1 µM [7] [%],Penile Erection IV ([8]; IV),Kb [1] [nM],inhibition at 1 µM [9] [%],Ki [9] [nM],EC50 [10] [nM],Efficacy/Intrinsic Activity [10],functional status at MC3-R in cAMP assay [11],functional status at MC5-R in cAMP assay [12],functional status at MC1-R in cAMP assay [13],intrinsic activity at MC4-R in a normal system [2],further results
"N-{3-[1-[2(R)-Amino-3-(2-methyl, 4-chloro-phenyl)-propionyl]-5(R)-methyl-4-(2-naphthalen-2-yl-ethyl)-piperazin-2(S)-yl]-propyl}-guanidine [Example 26]",no intrinsic activity (intrinsic activity below 0.1 (10%) is classified as inactive or having no intrinsic activity),,,,,,,,,,,,,,,,pA2 value as antagonist at MC4-R in a normal system [1]: 8.3
"N=C(N)NCCC[C@H]1C(=O)N2C(CC[C@@H]2COc2ccc3ccccc3c2)N1C(=O)[C@@H](Cc1ccc(Cl)cc1Cl)NC(=O)[C@@H]1Cc2ccccc2CN1 (stereo partly drawn) [Example 22, (S)-1,2,3,4-Tetrahydro-isoquinoline-3-carboxylic acid {(R)-1-(2,4-dichloro-benzyl)-2-[(2S,5R)-2-(3-guanidino-propyl)-5-(naphthalen-2-yloxymethyl)-3-oxo-hexahydro-pyrrolo[1,2-a]imidazol-1-yl]-2-oxo-ethyl}-amide]",antagonist,None,88,22,96,100,No,7.94,75,111,64,0.30,,,,,penile erection response ([8]; IV): no penile erection response
"Cc1cc(Cl)ccc1C[C@@H](N)C(=O)N1C[C@@H](C)N(C(=O)Cc2ccc3ccccc3c2)C[C@@H]1CCCNC(=N)N [Example 10, N-{3-[1-[2(R)-Amino-3-(4-chloro-2-dimethyl-phenyl)-propionyl]-5(R)-methyl(2-naphthalen-2-yl-acetyl)-piperazin-2(S)-yl]-propyl}-guanidine]",agonist (intrinsic activity of 0.7 (70%) or higher is classified as an agonist),0.23,34,,36,96,Yes*,,3,462,26,0.69,partial agonist (intrinsic activity between 0.1 (10%) and 0.7 (70%) is classified as a partial agonist),agonist (intrinsic activity of 0.7 (70%) or higher is classified as an agonist),partial agonist (intrinsic activity between 0.1 (10%) and 0.7 (70%) is classified as a partial agonist),0.9,"EC50 [3]: 38 nM; maximal decrease in food intake [14]: 33%; animals responding ([8]; IV, 0.3 to 30 μg/kg): not more than 66%; maximal decrease in food intake ([15]; 10 mg/kg): 27%"
"Cc1cc(Cl)ccc1C[C@@H](N)C(=O)N1C[C@@H](C)N(CCc2c[nH]c3ccccc23)C[C@@H]1CCCNC(=N)N [Example 9, N-(3-{1-(2(R)-Amino-(4-chloro-2-methyl-phenyl)-propionyl)-5(R)-methyl-4-[2-(1H-indol-3-yl)-ethyl]-piperazin-2(S)-yl}-propyl)-guanidine]",full agonist,None,74,16,75,98,No,,40,1730,22,0.73,no intrinsic activity (intrinsic activity below 0.1 (10%) is classified as inactive or having no intrinsic activity),no intrinsic activity (intrinsic activity below 0.1 (10%) is classified as inactive or having no intrinsic activity),no intrinsic activity (intrinsic activity below 0.1 (10%) is classified as inactive or having no intrinsic activity),1,"decrease in body weight [5]: 2%; Penile Erection ICV ([8]; ICV): No; penile erection response ([8]; ICV, 0.01 to 10 nmol): no penile erection response; penile erection response ([8]; IV, 0.3 to 30 μg/kg): no penile erection response; maximal decrease in food intake ([15]; 3 mg/kg): 10%"
"CC(C)C[C@@H]1CN(C(=O)[C@H](N)Cc2ccc(Cl)cc2Cl)[C@@H](CCCNC(=N)N)CN1CCc1ccc2ccccc2c1 [Example 4, N-{3-[1-[2(R)-Amino-3-(2,4-dichloro-phenyl)-propionyl]-5(R)-isobutyl-4-(2-naphthalen-2-yl-ethyl)-piperazin-2(S)-yl]-propyl}-guanidine]",no intrinsic activity (intrinsic activity below 0.1 (10%) is classified as inactive or having no intrinsic activity),None,64,,75,99,,20,21,1360,,None,,partial agonist (intrinsic activity between 0.1 (10%) and 0.7 (70%) is classified as a partial agonist),no intrinsic activity (intrinsic activity below 0.1 (10%) is classified as inactive or having no intrinsic activity),,"inhibition in vivo at 10 mg/kg ([15]; 10 mg/kg, read-out: maximal decrease in food intake): 60%"
